In EP0821958A2 (ELI LILLY AND COMPANY, priority 1996, dated 1998):

How the values were obtained:
D2 receptor subtype = D2 receptor subtype (Homo sapiens, UniProt P14416); experiment: Pharmacological studies at the D2 receptor subtype
[1] = target: muscarinic cholinergic receptors; experiment: 3H-oxotremorine-M binding inhibition (oxotremorine-M versus N-methylscopolamine binding studies); conditions: inhibition of binding of 3H-oxotremorine-M; read-out: inhibition constant (Ki)
m4 receptors = m4 receptors (Homo sapiens, UniProt P08173); assay type: cell-based; conditions: CHO m4 cells treated with pertussis toxin
Sequence of m4 receptors (P08173 whole entry): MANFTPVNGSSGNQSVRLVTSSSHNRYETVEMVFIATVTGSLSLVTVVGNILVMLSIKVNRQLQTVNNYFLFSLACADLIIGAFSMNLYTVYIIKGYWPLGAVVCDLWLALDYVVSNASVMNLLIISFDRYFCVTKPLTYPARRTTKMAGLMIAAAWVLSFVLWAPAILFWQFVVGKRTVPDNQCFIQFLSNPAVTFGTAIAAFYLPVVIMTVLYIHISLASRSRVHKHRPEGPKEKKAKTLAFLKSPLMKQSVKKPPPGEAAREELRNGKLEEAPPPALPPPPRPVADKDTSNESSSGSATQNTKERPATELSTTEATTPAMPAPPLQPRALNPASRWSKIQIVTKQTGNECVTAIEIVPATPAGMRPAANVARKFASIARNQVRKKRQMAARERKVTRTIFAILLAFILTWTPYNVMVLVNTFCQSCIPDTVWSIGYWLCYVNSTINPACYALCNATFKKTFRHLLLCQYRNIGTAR

Sequence of D2 receptor subtype (P14416 whole entry): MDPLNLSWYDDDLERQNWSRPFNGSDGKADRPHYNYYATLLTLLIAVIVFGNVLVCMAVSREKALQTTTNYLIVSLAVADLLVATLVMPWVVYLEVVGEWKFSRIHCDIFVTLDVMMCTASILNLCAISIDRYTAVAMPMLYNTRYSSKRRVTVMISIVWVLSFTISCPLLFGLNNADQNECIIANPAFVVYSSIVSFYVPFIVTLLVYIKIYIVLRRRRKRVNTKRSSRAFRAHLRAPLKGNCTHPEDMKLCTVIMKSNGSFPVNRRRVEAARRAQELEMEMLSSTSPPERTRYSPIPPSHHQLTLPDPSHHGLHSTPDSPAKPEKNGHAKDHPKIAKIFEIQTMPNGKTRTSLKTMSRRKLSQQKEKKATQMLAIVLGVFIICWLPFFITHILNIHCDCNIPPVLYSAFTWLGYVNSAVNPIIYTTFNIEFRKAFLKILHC

Structure (SMILES): CCCCCCOc1nsnc1C1=CCCN(C)C1 [xanomeline, 3-(4-hexyloxy-1,2,5-thiadiazol-3-yl)-1,2,5,6-tetrahydro-1-methylpyridine]
- activity at the D2 receptor subtype (D2 receptor subtype): active
- Ki [1]: 2 nM
- formation of cAMP (m4 receptors): efficaciously and potently stimulated the formation of cAMP
